In PubChem BioAssay AID256 (DTP/NCI, 2004):
“And” between values parts separate entries of the source, which are not always exact repeats. Equal entries are not always repeated. Inconclusive results and toxic doses are left out.

Tested on: CD2F1 mice, L1210 leukemia ip, survival T/C
Test: NCI In Vivo Anticancer Drug Screen. Data for tumor model L1210 Leukemia (intraperitoneal) in CD2F1 (CDF1) mice
Settings: higher = longer survival
Outline: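 Tumor-bearing mice (transplanted tumor) were split into treated and vehicle control groups, and the measured endpoint of each treated group was divided by that of its vehicle controls.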

For `Cc1c2ccncc2c(C)c2c1[nH]c1ccccc12`, the T/C (endpoint: mean survival time, dose: 2.0 mg/kg/injection, schedule: Q01DX009 (ip), vehicle: saline with Tween-80) was 113 % of control and 114 % of control and 105 % of control, the T/C (endpoint: mean survival time, dose: 3.13 mg/kg/injection, schedule: Q01DX009 (ip), vehicle: water) was 119 % of control and the T/C (endpoint: mean survival time, dose: 4.0 mg/kg/injection, schedule: Q01DX009 (ip), vehicle: saline with Tween-80) was 122 % of control and 124 % of control. For the same compound, the T/C (endpoint: mean survival time, dose: 6.25 mg/kg/injection, schedule: Q01DX009 (ip), vehicle: other) was 157 % of control, the T/C (endpoint: mean survival time, dose: 6.25 mg/kg/injection, schedule: Q01DX009 (ip), vehicle: water) was 151 % of control and the T/C (endpoint: mean survival time, dose: 6.25 mg/kg/injection, schedule: Q01DX009 (oral), vehicle: other) was 116 % of control. For the same compound, the T/C (endpoint: mean survival time, dose: 6.25 mg/kg/injection, schedule: Q01DX009 (oral), vehicle: saline) was 117 % of control, the T/C (endpoint: mean survival time, dose: 6.25 mg/kg/injection, schedule: Q01DX009 (oral), vehicle: water) was 123 % of control and the T/C (endpoint: mean survival time, dose: 6.25 mg/kg/injection, schedule: Q04DX003 (ip), vehicle: other) was 112 % of control. The T/C (endpoint: mean survival time, dose: 6.25 mg/kg/injection, schedule: Q04DX003 (ip), vehicle: water) was 108 % of control, the T/C (endpoint: mean survival time, dose: 10.0 mg/kg/injection, schedule: Q01DX001 (ip), vehicle: water) was 104 % of control and the T/C (endpoint: mean survival time, dose: 10.0 mg/kg/injection, schedule: Q01DX009 (ip), vehicle: saline with Tween-80) was 153 % of control. For the same compound, the T/C (endpoint: mean survival time, dose: 10.0 mg/kg/injection, schedule: Q04DX003 (ip), vehicle: saline with Tween-80) was 123 % of control, the T/C (endpoint: mean survival time, dose: 12.5 mg/kg/injection, schedule: Q01DX009 (ip), vehicle: other) was 198 % of control and the T/C (endpoint: mean survival time, dose: 12.5 mg/kg/injection, schedule: Q01DX009 (ip), vehicle: saline) was 180 % of control. For the same compound, the T/C (endpoint: mean survival time, dose: 12.5 mg/kg/injection, schedule: Q01DX009 (ip), vehicle: water) was 208 % of control, the T/C (endpoint: mean survival time, dose: 12.5 mg/kg/injection, schedule: Q01DX009 (oral), vehicle: saline) was 109 % of control and the T/C (endpoint: mean survival time, dose: 12.5 mg/kg/injection, schedule: Q04DX003 (ip), vehicle: distilled water + Tween-80) was 111 % of control. For the same compound, the T/C (endpoint: mean survival time, dose: 12.5 mg/kg/injection, schedule: Q04DX003 (ip), vehicle: saline with Tween-80) was 123 % of control, the T/C (endpoint: mean survival time, dose: 12.5 mg/kg/injection, schedule: Q04DX003 (ip), vehicle: water) was 122 % of control and 124 % of control and the T/C (endpoint: mean survival time, dose: 12.5 mg/kg/injection, schedule: Q04DX003 (oral), vehicle: other) was 103 % of control and 108 % of control. For the same compound, the T/C (endpoint: mean survival time, dose: 12.5 mg/kg/injection, schedule: Q04DX003 (oral), vehicle: saline) was 113 % of control and 107 % of control, the T/C (endpoint: mean survival time, dose: 12.5 mg/kg/injection, schedule: Q04DX003 (oral), vehicle: water) was 114 % of control and 109 % of control and the T/C (endpoint: mean survival time, dose: 20.0 mg/kg/injection, schedule: Q01DX001 (ip), vehicle: water) was 104 % of control. The T/C (endpoint: mean survival time, dose: 20.0 mg/kg/injection, schedule: Q01DX009 (ip), vehicle: saline with Tween-80) was 188 % of control and 205 % of control, the T/C (endpoint: mean survival time, dose: 20.0 mg/kg/injection, schedule: Q04DX003 (ip), vehicle: saline with Tween-80) was 157 % of control and the T/C (endpoint: mean survival time, dose: 25.0 mg/kg/injection, schedule: Q01DX009 (ip), vehicle: other) was 118 % of control. For the same compound, the T/C (endpoint: mean survival time, dose: 25.0 mg/kg/injection, schedule: Q01DX009 (ip), vehicle: saline) was 218 % of control, the T/C (endpoint: mean survival time, dose: 25.0 mg/kg/injection, schedule: Q01DX009 (ip), vehicle: water) was 100 % of control and the T/C (endpoint: mean survival time, dose: 25.0 mg/kg/injection, schedule: Q01DX009 (oral), vehicle: other) was 163 % of control. The T/C (endpoint: mean survival time, dose: 25.0 mg/kg/injection, schedule: Q01DX009 (oral), vehicle: water) was 159 % of control, the T/C (endpoint: mean survival time, dose: 25.0 mg/kg/injection, schedule: Q04DX003 (ip), vehicle: distilled water + Tween-80) was 121 % of control and the T/C (endpoint: mean survival time, dose: 25.0 mg/kg/injection, schedule: Q04DX003 (ip), vehicle: saline) was 156 % of control. The T/C (endpoint: mean survival time, dose: 25.0 mg/kg/injection, schedule: Q04DX003 (ip), vehicle: water) was 157 % of control and 190 % of control, the T/C (endpoint: mean survival time, dose: 25.0 mg/kg/injection, schedule: Q04DX003 (oral), vehicle: other) was 116 % of control and the T/C (endpoint: mean survival time, dose: 25.0 mg/kg/injection, schedule: Q04DX003 (oral), vehicle: saline) was 116 % of control and 118 % of control. For the same compound, the T/C (endpoint: mean survival time, dose: 25.0 mg/kg/injection, schedule: Q04DX003 (oral), vehicle: water) was 116 % of control, the T/C (endpoint: mean survival time, dose: 32.0 mg/kg/injection, schedule: Q01DX009 (ip), vehicle: saline with Tween-80) was 182 % of control and the T/C (endpoint: mean survival time, dose: 40.0 mg/kg/injection, schedule: Q01DX009 (ip), vehicle: saline with Tween-80) was 153 % of control. For the same compound, the T/C (endpoint: mean survival time, dose: 40.0 mg/kg/injection, schedule: Q04DX003 (ip), vehicle: saline with Tween-80) was 182 % of control and 202 % of control, the T/C (endpoint: mean survival time, dose: 50.0 mg/kg/injection, schedule: Q01DX009 (ip), vehicle: other) was 92 % of control and the T/C (endpoint: mean survival time, dose: 50.0 mg/kg/injection, schedule: Q01DX009 (ip), vehicle: saline) was 185 % of control. The T/C (endpoint: mean survival time, dose: 50.0 mg/kg/injection, schedule: Q01DX009 (ip), vehicle: water) was 87 % of control, the T/C (endpoint: mean survival time, dose: 50.0 mg/kg/injection, schedule: Q01DX009 (oral), vehicle: saline) was 152 % of control and the T/C (endpoint: mean survival time, dose: 50.0 mg/kg/injection, schedule: Q01DX009 (oral), vehicle: water) was 107 % of control. The T/C (endpoint: mean survival time, dose: 50.0 mg/kg/injection, schedule: Q04DX003 (ip), vehicle: distilled water + Tween-80) was 156 % of control, the T/C (endpoint: mean survival time, dose: 50.0 mg/kg/injection, schedule: Q04DX003 (ip), vehicle: saline with Tween-80) was 119 % of control and the T/C (endpoint: mean survival time, dose: 50.0 mg/kg/injection, schedule: Q04DX003 (ip), vehicle: saline) was 177 % of control. The T/C (endpoint: mean survival time, dose: 50.0 mg/kg/injection, schedule: Q04DX003 (ip), vehicle: water) was 186 % of control, the T/C (endpoint: mean survival time, dose: 50.0 mg/kg/injection, schedule: Q04DX003 (oral), vehicle: other) was 153 % of control and the T/C (endpoint: mean survival time, dose: 50.0 mg/kg/injection, schedule: Q04DX003 (oral), vehicle: saline) was 167 % of control. The T/C (endpoint: mean survival time, dose: 50.0 mg/kg/injection, schedule: Q04DX003 (oral), vehicle: water) was 152 % of control and 158 % of control, the T/C (endpoint: mean survival time, dose: 64.0 mg/kg/injection, schedule: Q01DX009 (ip), vehicle: saline with Tween-80) was 120 % of control and 102 % of control and 107 % of control and the T/C (endpoint: mean survival time, dose: 80.0 mg/kg/injection, schedule: Q01DX001 (ip), vehicle: water) was 162 % of control. The T/C (endpoint: mean survival time, dose: 100.0 mg/kg/injection, schedule: Q01DX001 (ip), vehicle: other) was 205 % of control, the T/C (endpoint: mean survival time, dose: 100.0 mg/kg/injection, schedule: Q01DX009 (oral), vehicle: saline) was 94 % of control and the T/C (endpoint: mean survival time, dose: 100.0 mg/kg/injection, schedule: Q04DX003 (ip), vehicle: distilled water + Tween-80) was 163 % of control and 177 % of control. The T/C (endpoint: mean survival time, dose: 100.0 mg/kg/injection, schedule: Q04DX003 (ip), vehicle: saline) was 216 % of control, the T/C (endpoint: mean survival time, dose: 100.0 mg/kg/injection, schedule: Q04DX003 (oral), vehicle: saline) was 163 % of control and 179 % of control and the T/C (endpoint: mean survival time, dose: 200.0 mg/kg/injection, schedule: Q01DX001 (ip), vehicle: other) was 224 % of control. The T/C (endpoint: mean survival time, dose: 200.0 mg/kg/injection, schedule: Q04DX003 (ip), vehicle: distilled water + Tween-80) was 113 % of control and 104 % of control, the T/C (endpoint: mean survival time, dose: 200.0 mg/kg/injection, schedule: Q04DX003 (oral), vehicle: other) was 113 % of control and the T/C (endpoint: mean survival time, dose: 200.0 mg/kg/injection, schedule: Q04DX003 (oral), vehicle: saline) was 122 % of control and 102 % of control. For the same compound, the T/C (endpoint: mean survival time, dose: 400.0 mg/kg/injection, schedule: Q01DX001 (ip), vehicle: other) was 186 % of control, the T/C (endpoint: mean survival time, dose: 400.0 mg/kg/injection, schedule: Q04DX003 (oral), vehicle: other) was 96 % of control and the T/C (endpoint: median survival time, dose: 10.0 mg/kg/injection, schedule: Q01DX001 (ip), vehicle: water) was 106 % of control. The T/C (endpoint: median survival time, dose: 20.0 mg/kg/injection, schedule: Q01DX001 (ip), vehicle: water) was 117 % of control and the T/C (endpoint: median survival time, dose: 80.0 mg/kg/injection, schedule: Q01DX001 (ip), vehicle: water) was 153 % of control.
With `CCC(C)C(=O)O[C@H]1C(=O)O[C@@H]2C[C@H]3C(C)=CC(=O)[C@@H](O)[C@]3(C)[C@H]3[C@@H](O)[C@H](O)[C@@]4(C)OC[C@]32[C@@H]14` (some centres undefined) the T/C (endpoint: mean survival time, dose: 2.0 mg/kg/injection, schedule: Q01DX009 (ip), vehicle: saline + alcohol) was 104 % of control and the T/C (endpoint: mean survival time, dose: 4.0 mg/kg/injection, schedule: Q01DX009 (ip), vehicle: saline + alcohol) was 102 % of control.
In the case of `CCCCCCCCCCCCCC[N+]1(CC)CCCCC1`, the T/C (endpoint: mean survival time, dose: 0.12 mg/kg/injection, schedule: Q01DX009 (ip), vehicle: saline) is reported as 100 % of control, the T/C (endpoint: mean survival time, dose: 0.39 mg/kg/injection, schedule: Q01DX009 (ip), vehicle: saline) is reported as 103 % of control and the T/C (endpoint: mean survival time, dose: 0.78 mg/kg/injection, schedule: Q01DX009 (ip), vehicle: saline) is reported as 106 % of control. The T/C (endpoint: mean survival time, dose: 1.56 mg/kg/injection, schedule: Q01DX009 (ip), vehicle: saline) was 97 % of control.
